Laboratory results from patent US20210205638A1, “PARATHYROID HORMONE AND REGENERATION OF DEGENERATIVE DISCS DISEASE” (THE JOHNS HOPKINS UNIVERSITY, priority 2017, published 2021).

Experiments:
PTH1R KO mice = assay: iPTH in PTH1R KO and PTH1R+/+ mice: PPCT IVD volume; type: in vivo, mouse
Description: Mice carrying the PTH1R gene flanked by loxP sites (PTH1R^flox/flox) were mated with Noto^Cre mice to generate mice bearing Noto^Cre and a floxed PTH1R allele in their germline. These mice were backcrossed to homozygous floxed mice (Noto^Cre/+/PTH1R^flox/+::PTH1R^flox/flox) to generate mice with inactivation of both alleles in notochord derived cells (genotype Noto^+/+::PTH1R^flox/flox). […] The genotype of transgenic mice was determined by PCR analyses of genomic DNA isolated from mouse tails. […] The images were reconstructed and analyzed using the GPU-CT-Reconstruction software (applied by the BL13W1 experimental station) and the VG Studio Max 3D software (version 2.1, Volume Graphics GmbH, Germany) respectively. […] The 3D quantitative analysis of IVDs was performed with the commercially available Image Pro Analyzer 3D software (Version 7.0, Media Cybernetics, Inc., USA). The 3D structural parameters analyzed for the mean height and volume and thickness distribution of IVDs. The trabecular bone of L4 was segmented from the bone marrow and analyzed to determine the trabecular bone volume fraction (BV/TV), trabecular thickness (Tb. Th), trabecular number (Tb. N) and trabecular separation (Tb. Sp).

18-month-old mice = assay: iPTH in aged mice: in vivo micro-MRI of lumbar IVDs; parameters: species or system mouse; conditions: iPTH injection
Description: In vivo Spinal IVD imaging was conducted with a horizontal 30-cm-bore 9.4T Bruker Biospec preclinical scanner equipped with custom-built, single-turn volume coil positioned orthogonal to the BO magnetic field. Anesthetization of mice was initiated with 4% isoflurane and maintained with a 2% isoflurane and oxygen mixture. Mice were placed supine on a tray and taped to minimize the motion artifacts. We acquired T2-weighted images using a relaxation enhancement (RARE) sequence with the following parameter: an echo time/repetition time (TE/TR) of 15.17 ms/3,000 ms, 35 slices at thickness of 0.35 mm, field of view (FOV) of 1.75 cm×1.75 cm and matrix size of 256×128. All T2-weighted images were processed to a final matrix size of 256×256 with an isotropic resolution of 0.068 mm pixel-1. For quantification of signal intensity as an indicator of disc tissue hydration, the region of interest at L3-L4 level in each group was selected and measured using Image-Pro Plus Software version 6.

NP cells = assay: pCREB immunostaining of IVD sections at time points after PTH treatment; type: in vivo, mouse
Description: For immunocytochemical staining, we incubated GFP labeled NP cells co-stained with primary antibody to rabbit PTH1R PRB-635P (Covance, 1:100) for 1 h and subsequently stained with secondary antibodies conjugated with fluorescence at room temperature. At the time of euthanasia, we dissected and fixed the lumbar vertebral spine in 10% buffered formalin for 48 h, decalcified them in 10% EDTA (pH 7.4) for 14-21 days and embedded them in paraffin or optimal cutting temperature (OCT) compound (Sakura Finetek). Fourmicrometer-thick coronal-oriented sections of the L1-L6 spine were processed for safranin O and fast green staining. […] For immunofluorescent assay, the slides were incubated with secondary antibodies conjugated with fluorescence at room temperature for 1 h while avoiding light. […]
Quantitative histomorphometric analysis was conducted in a blinded fashion with Image-Pro Plus Software version 6.0 (Media Cybernetics Inc). […] Five randomly selected sections per mice in each group at L3-L4 level were chosen for quantitative histomorphometric analysis. […] The percentage area of CCN2 and ACAN positive staining was calculated by measuring the positive area to the whole area of the L3-L4 in each group.

SMILES: CC[C@H](C)[C@H](NC(=O)[C@H](CCC(=O)O)NC(=O)[C@H](CO)NC(=O)[C@@H](NC(=O)[C@@H](N)CO)C(C)C)C(=O)N[C@@H](CCC(N)=O)C(=O)N[C@@H](CC(C)C)C(=O)N[C@@H](CCSC)C(=O)N[C@@H](Cc1cnc[nH]1)C(=O)N[C@@H](CC(N)=O)C(=O)N[C@@H](CC(C)C)C(=O)NCC(=O)N[C@@H](CCCCN)C(=O)N[C@@H](Cc1cnc[nH]1)C(=O)N[C@@H](CC(C)C)C(=O)N[C@@H](CC(N)=O)C(=O)N[C@@H](CO)C(=O)N[C@@H](CCSC)C(=O)N[C@@H](CCC(=O)O)C(=O)N[C@@H](CCCN=C(N)N)C(=O)N[C@H](C(=O)N[C@@H](CCC(=O)O)C(=O)N[C@@H](Cc1c[nH]c2ccccc12)C(=O)N[C@@H](CC(C)C)C(=O)N[C@@H](CCCN=C(N)N)C(=O)N[C@@H](CCCCN)C(=O)N[C@@H](CCCCN)C(=O)N[C@@H](CC(C)C)C(=O)N[C@@H](CCC(N)=O)C(=O)N[C@@H](CC(=O)O)C(=O)N[C@H](C(=O)N[C@@H](Cc1cnc[nH]1)C(=O)N[C@@H](CC(N)=O)C(=O)N[C@@H](Cc1ccccc1)C(=O)O)C(C)C)C(C)C [PTH (1-34), teriparatide]
- increase of IVD volume by iPTH (PTH1R KO mice; 12-month-old PTH1R KO mice): abolished
- IVD volume (PTH1R KO mice; 12-month-old PTH1R+/+ mice): Increase
- MRI signal intensity of lumbar IVDs (18-month-old mice): significantly increased
- time at which number of pCREB+ cells in NP area peaked (NP cells; after treatment): 1 hour
- number of pCREB+ cells in NP area (NP cells; at 30 minutes after treatment): increased
